Experimental data taken from patent US20220033434A1, “ANDROGEN RECEPTOR NUCLEIC ACIDS AND USES THEREOF” (Avidity Biosciences, Inc., priority 2016, published 2022).
In the oligonucleotide strings, read from the 5' end, every base follows the letter of its sugar. An asterisk marks phosphorothioate; unmarked linkages are phosphodiester. Other units and linkages are bracketed, terminal groups are in braces. A string of capitals states the bases alone. d = 2'-deoxy (DNA); m = 2'-O-methyl; f = 2'-fluoro

What was measured:
Format in all cases: cell-based, human
AR-SV(2) = experiment: AR protein knock-down by Western blot after siRNA transfection in 22RV1 cells: AR-SV(2); settings: 5 nM siRNA, 50 h post transfection, compared to controls
Description: (§1) In some instances, a set of AR siRNAs were identified that were predicted to be specific in human and non-human primates (NHP) and cross-reactive with NHPs but not rodent AR mRNA. To identify AR siRNAs that regulate both full length AR and clinically relevant AR splice variants, the search for AR siRNAs was focused primarily, but not exclusively, on exons 1, 2 and 3 of the AR gene, which are common to most AR isoforms. The resulting set of 50 AR siRNAs (Tables 1-3) was assessed in two prostate cancer lines that express high levels of either clinically relevant AR splice variants (22RV1, ATCC) or a full length AR T877A LBD mutant (LNCaP, ATCC). The response of LNCaP tumors in xenograft models to AR antagonists is known to correlate well with clinical responses.
(§2) To monitor their ability to downregulate various AR isoforms, each siRNA was formulated at a single final concentration of 5 nM with a commercially-available transfection reagent (Lipofectamine RNAiMAX, Life Technologies) according to the manufacturer's “forward transfection” instructions. At 50 h (22RV1) and 72 h (LNCaP) post transfection, cells were harvested, and lysed in RIPA buffer (Pierce) supplemented with HALT protease inhibitors (Pierce) using standard procedures. The protein concentration was determined using a BCA protein concentration kit (Pierce). To monitor AR levels in these lysates, proteins (30 ug/lane) were separated by PAGE on BOLT 4-12% Bis-Tris PA gels (Life Technologies), transferred to nitrocellulose using an iBlot dry blot system (Thermo Fisher), and probed with specific antibodies against a region of the N-terminal domain of human AR that is common in known clinically relevant splice variants (N20, Santa Cruz Biotech). A second antibody against α-Tubulin was used as control (P16, Santa Cruz Biotech). Levels of these proteins in the respective cell lysates were quantified on an Odyssey imaging system (LICOR) using appropriate secondary antibodies linked to IRDyes (800CW, 680RD).

AR mRNA [1] = experiment: AR mRNA downregulation by RT-qPCR at 5 nM siRNA in LNCaP cells; settings: 24 hrs post-transfection
Description: (§3) Focusing on siRNAs targeting AR sequences exons 1 and 2, the ability of these siRNAs to downregulate AR mRNA at a concentration of 5 nM was determined by RT-qPCR. For this purpose, siRNAs were transfected into 22RV1 and LNCaP cells as described above. At 24 hrs post-transfection, RNA was harvested from cells using a Qiagen RNeasy® Plus Mini Kit or Stratec InviTrap® RNA Cell HTS96 kit. The concentration of each isolated RNA was determined via A260 measurement using a NanoDrop spectrophotometer. RNA samples were reverse transcribed to cDNA using the High Capacity RNA to cDNA Kit (Life Technologies) according to the manufacturer's instructions. cDNA samples were then quantified by qPCR using AR-specific probes and results normalized to either endogenous β-actin or PPIB using the standard 2^−ΔΔCt method. These studies identified 6 siRNAs that at a concentration of 5 nM down regulated AR mRNA in 22RV1 and LNCaP cells by more than 80% compared to controls (Table 4).

[2] = system: AR FL (full length AR T877A LBD mutant); experiment: AR protein knock-down by Western blot after siRNA transfection in LNCaP cells: AR FL; settings: 5 nM siRNA, 72 h post transfection, compared to controls
Description: as §1, §2

AR-SV(3) = experiment: AR protein knock-down by Western blot after siRNA transfection in 22RV1 cells: AR-SV(3); settings: 5 nM siRNA, 50 h post transfection, compared to controls
Description: as §1, §2

AR mRNA [3] = experiment: AR mRNA downregulation by RT-qPCR at 5 nM siRNA in 22RV1 cells; settings: 24 hrs post-transfection
Description: as §3

AR FL(1) = experiment: AR protein knock-down by Western blot after siRNA transfection in 22RV1 cells: AR FL(1); settings: 5 nM siRNA, 50 h post transfection, compared to controls
Description: as §1, §2

Row | Substance | % KD AR Protein 22RV1 AR-SV(2) (AR-SV(2)) | % KD AR RNA LNCaP (AR mRNA [1]) | % KD AR Protein LNCaP AR FL [2] | % KD AR Protein 22RV1 AR-SV(3) (AR-SV(3)) | % KD AR RNA 22RV1 (AR mRNA [3]) | % KD AR Protein 22RV1 AR FL(1) (AR FL(1))
1 | XD-01813: AR siRNA with chemical modification, Id # 1201; sense X05321 (SEQ ID NO: 151), antisense X05322 (SEQ ID NO: 152) (sense mGmCfGmUfGmCfGmCfGmAfAmGfUmGfAmUfCmCfAdT*dT; antisense fUfGmGfAmUfCmAfCmUfUmCfGmCfGmCfAmCfGmCdT*dT) | 77% | 66% | 98% | 80% | 53% | 73%
2 | XD-01816: AR siRNA with chemical modification, Id # 1984; sense X05327 (SEQ ID NO: 157), antisense X05328 (SEQ ID NO: 158) (sense mGmCfAmAfAmGfGmUfUmCfUmCfUmGfCmUfAmGfAdT*dT; antisense fUfCmUfAmGfCmAfGmAfGmAfAmCfCmUfUmUfGmCdT*dT) | 66% | 74% | 97% | 69% | 60% | 57%
3 | XD-01820: AR siRNA with chemical modification, Id # 2189; sense X05335 (SEQ ID NO: 165), antisense X05336 (SEQ ID NO: 166) (sense mGmUfAmCfCmAfGmAfGmUfCmGfCmGfAmCfUmAfCdT*dT; antisense fGfUmAfGmUfCmGfCmGfAmCfUmCfUmGfGmUfAmCdT*dT) | 91% | 59% | 100% | 91% | 46% | 85%
4 | XD-01821: AR siRNA with chemical modification, Id # 2207; sense X05337 (SEQ ID NO: 167), antisense X05338 (SEQ ID NO: 168) (sense mCmUfAmCfAmAfCmUfUmUfCmCfAmCfUmGfGmCfUdT*dT; antisense fAfGmCfCmAfGmUfGmGfAmAfAmGfUmUfGmUfAmGdT*dT) | 80% | 81% | 96% | 7% | 68% | 73%
5 | XD-01857: AR siRNA with chemical modification, Id # 3473; sense X05409 (SEQ ID NO: 239), antisense X05410 (SEQ ID NO: 240) (sense mCmCfGmAfAmUfGmAfGmGfCmAfCmCfUmCfUmCfUdT*dT; antisense fAfGmAfGmAfGmGfUmGfCmCfUmCfAmUfUmCfGmGdT*dT) | −7% |  | 100% | 1% |  | 79%
6 | XD-01858: AR siRNA with chemical modification, Id # 3475; sense X05411 (SEQ ID NO: 241), antisense X05412 (SEQ ID NO: 242) (sense mGmAfAmUfGmAfGmGfCmAfCmCfUmCfUmCfUmCfAdT*dT; antisense fUfGmAfGmAfGmAfGmGfUmGfCmCfUmCfAmUfUmCdT*dT) | 25% |  | 99% | 66% |  | 93%
7 | XD-01859: AR siRNA with chemical modification, Id # 3481; sense X05413 (SEQ ID NO: 243), antisense X05414 (SEQ ID NO: 244) (sense mGmGfCmAfCmCfUmCfUmCfUmCfAmAfGmAfGmUfUdT*dT; antisense fAfAmCfUmCfUmUfGmAfGmAfGmAfGmGfUmGfCmCdT*dT) | −23% |  | 100% | −49% |  | 87%
8 | XD-01860: AR siRNA with chemical modification, Id # 3629; sense X05415 (SEQ ID NO: 245), antisense X05416 (SEQ ID NO: 246) (sense mAmCfUmCfGmAfUmCfGmUfAmUfCmAfUmUfGmCfAdT*dT; antisense fUfGmCfAmAfUmGfAmUfAmCfGmAfUmCfGmAfGmUdT*dT) | −9% |  | 99% | 4% |  | 90%
9 | XD-01861: AR siRNA with chemical modification, Id # 3779; sense X05417 (SEQ ID NO: 247), antisense X05418 (SEQ ID NO: 248) (sense mGmAfGmCfGmUfGmGfAmCfUmUfUmCfCmGfGmAfAdT*dT; antisense fUfUmCfCmGfGmAfAmAfGmUfCmCfAmCfGmCfUmCdT*dT) | 11% |  | 99% | 51% |  | 90%
10 | XD-01862: AR siRNA with chemical modification, Id # 3781; sense X05419 (SEQ ID NO: 249), antisense X05420 (SEQ ID NO: 250) (sense mGmCfGmUfGmGfAmCfUmUfUmCfCmGfGmAfAmAfUdT*dT; antisense fAfUmUfUmCfCmGfGmAfAmAfGmUfCmCfAmCfGmCdT*dT) | 24% |  | 87% | 40% |  | 92%
